The text below walks through data of the SangsterLogP compilation.

The data set in a line: method code SF-AS, from PMID: 4730594. Conditions: pH 7.0.
What is called logD is the decadic logarithm of the distribution of all forms, ionised or not, between an organic phase and buffer at a given pH. `O=[N+]([O-])c1cc[n+]([O-])c2c([N+](=O)[O-])cccc12` yielded a log distribution coefficient (logD) of 0.76. Compound `CC(=O)ONc1ccnc2ccccc12` came in with a logD of 0.97.

As for `[O-][n+]1ccc(Cl)c2ccccc21`, the logD amounted to 1.08. The logD values of the last two compounds are within 0.2 log units of each other.

`Cc1ccc2c([N+](=O)[O-])cc[n+]([O-])c2c1` came in with a logD of 1.42. The figure for `CC(C)(C)c1ccc2c(c1)c([N+](=O)[O-])cc[n+]2[O-]` is 1.51. The figure for `Cc1cc([N+](=O)[O-])c2ccccc2[n+]1[O-]` is 1.25; for `O=[N+]([O-])c1cc[n+]([O-])c2ccccc12` it is 1.02. The figure for `Cc1ccc2c(c1)c([N+](=O)[O-])cc[n+]2[O-]` is 1.43; for `O=[N+]([O-])c1cc2ccccc2[n+]([O-])c1` it is 0.56; for `NC(=O)Cc1cc[n+]([O-])c2ccccc12` it is -0.11. In turn, `O=[N+]([O-])c1cccc2ccc[n+]([O-])c12` displayed a logD of 0.04.

Compound `O=c1ccn(O)c2ccccc12` had a logD of -0.47. `CS(=O)(=O)c1cc[n+]([O-])c2ccccc12` had a logD of 0.12. The figure for `O=[N+]([O-])c1cc[n+]([O-])c2c(F)cccc12` is 1; for `O=[N+]([O-])c1cccc2c1c([N+](=O)[O-])cc[n+]2[O-]` it is 0.95.

`O=[N+]([O-])c1ccc2ccc[n+]([O-])c2c1` yielded a logD of 0.36.

`O/N=c1/ccn(O)c2ccccc12` yielded a logD of 0.

As to `O=[N+]([O-])c1cc[n+]([O-])c2ccc(Cl)cc12`, the logD stood at 1.41. In the case of `Cc1c[n+]([O-])c2ccccc2c1[N+](=O)[O-]`, the logD was found to be 1.06.

`O=[N+]([O-])c1ccc2c(ccc[n+]2[O-])c1`: the logD was 0.39. `O=[N+]([O-])c1c(Cl)c[n+]([O-])c2ccccc12`: the logD turned out to be 1.33. The figure for `O=[N+]([O-])c1cccc2c1ccc[n+]2[O-]` is 0.49; for `O=[N+]([O-])c1ccc2c(c1)c([N+](=O)[O-])cc[n+]2[O-]` it is 0.9; for `CCCCc1ccc2c(c1)c([N+](=O)[O-])cc[n+]2[O-]` it is 2.08. `Cc1cccc2c([N+](=O)[O-])cc[n+]([O-])c12`: the logD is 1.59. The figure for `CC(=O)ON=c1ccn(OC(C)=O)c2ccccc12` is 1.04; for `Cc1cccc2c1c([N+](=O)[O-])cc[n+]2[O-]` it is 1.36.
